In PubChem BioAssay (NCI):
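In this assay, cells in 96-well plates receive the compound at five concentrations for 48 hours. Endpoints are linearly interpolated between the surrounding concentrations. GI50 = concentration required for 50% inhibition of growth. At the TGI there is no net growth.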

What was measured:
Test in all cases: inhibition of tumour cell growth, NCI panel, 48 h
[1] = tested on: MCF7 breast
[2] = tested on: MDA-MB-435
[3] = tested on: SF-268 CNS
[4] = tested on: UACC-62 melanoma
[5] = tested on: HS 578T breast
[6] = tested on: HT29 colon
[7] = tested on: COLO 205 colon
[8] = tested on: SK-MEL-2 melanoma
[9] = tested on: SK-OV-3 ovarian
[10] = tested on: SNB-19 CNS
[11] = tested on: OVCAR-8 ovarian
[12] = tested on: IGROV1 ovarian
[13] = tested on: U251 CNS
[14] = tested on: 786-0 renal
[15] = tested on: K-562 leukemia
[16] = tested on: LOX IMVI melanoma
[17] = tested on: MOLT-4 leukemia
[18] = tested on: T-47D breast
[19] = tested on: SR leukemia
[20] = tested on: SNB-75 CNS
[21] = tested on: A498 renal
[22] = tested on: HCT-15 colon
[23] = tested on: SK-MEL-5 melanoma
[24] = tested on: SW-620 colon
[25] = tested on: SF-539 CNS
[26] = tested on: NCI-H460 lung
[27] = tested on: OVCAR-4 ovarian
[28] = tested on: RXF 393 renal
[29] = tested on: HOP-92 NSCLC
[30] = tested on: TK-10 renal
[31] = tested on: EKVX NSCLC
[32] = tested on: MALME-3M melanoma
[33] = tested on: DU-145 prostate
[34] = tested on: UACC-257 melanoma
[35] = tested on: CAKI-1 renal
[36] = tested on: BT-549 breast
[37] = tested on: SN12C renal
[38] = tested on: HCC-2998 colon
[39] = tested on: NCI/ADR-RES ovarian
[40] = tested on: OVCAR-3 ovarian
[41] = tested on: UO-31 renal
[42] = tested on: KM12 colon
[43] = tested on: PC-3 prostate
[44] = tested on: RPMI-8226 leukemia
[45] = tested on: SF-295 CNS
[46] = tested on: A549 NSCLC
[47] = tested on: SK-MEL-28 melanoma
[48] = tested on: MDA-MB-231 breast
[49] = tested on: ACHN renal
[50] = tested on: M14 melanoma
[51] = tested on: HCT-116 colon
[52] = tested on: HL-60(TB) leukemia
[53] = tested on: HOP-62 NSCLC
[54] = tested on: NCI-H226 lung
[55] = tested on: NCI-H522 lung
[56] = tested on: OVCAR-5 ovarian

`N/C(=N\c1nc2c(Cl)cc(Cl)cc2s1)C(Cl)(Cl)Cl` gave a GI50 [1] of 3.02 µM, a TGI [1] greater than 100 µM and a GI50 [2] of 61.3 µM. It also gave a TGI [2] greater than 100 µM, a GI50 [3] of 51.5 µM and a TGI [3] greater than 100 µM. For the same compound, the GI50 [4] was 26.7 µM, the TGI [4] was greater than 100 µM and the GI50 [5] was 17.9 µM. For the same compound, the TGI [5] was greater than 100 µM, the GI50 [6] was 5.21 µM and the TGI [6] was 29.7 µM. For the same compound, the GI50 [7] was 3.46 µM, the TGI [7] was 16.2 µM and the GI50 [8] was greater than 100 µM. For the same compound, the TGI [8] was greater than 100 µM, the GI50 [9] was 35.4 µM and the TGI [9] was greater than 100 µM. For the same compound, the GI50 [10] was 19.4 µM, the TGI [10] was greater than 100 µM and the GI50 [11] was greater than 100 µM. It also gave a TGI [11] greater than 100 µM, a GI50 [12] of 55.8 µM and a TGI [12] greater than 100 µM. The GI50 [13] was 6.63 µM, the TGI [13] was 96.6 µM and the GI50 [14] was greater than 100 µM. For the same compound, the TGI [14] was greater than 100 µM, the GI50 [15] was 55.3 µM and the TGI [15] was greater than 100 µM. It also gave a GI50 [16] of 3.3 µM, a TGI [16] of 26.3 µM and a GI50 [17] of 34.6 µM. For the same compound, the TGI [17] was greater than 100 µM, the GI50 [18] was 5.4 µM and the TGI [18] was greater than 100 µM. For the same compound, the GI50 [19] was 77.4 µM, the TGI [19] was greater than 100 µM and the GI50 [20] was greater than 100 µM. For the same compound, the TGI [20] was greater than 100 µM, the GI50 [21] was 15.3 µM and the TGI [21] was 29.4 µM. For the same compound, the GI50 [22] was 53.2 µM, the TGI [22] was greater than 100 µM and the GI50 [23] was greater than 100 µM. The TGI [23] was greater than 100 µM, the GI50 [24] was 48 µM and the TGI [24] was greater than 100 µM. The GI50 [25] was 17.2 µM, the TGI [25] was greater than 100 µM and the GI50 [26] was 3.63 µM. It also gave a TGI [26] of 18.2 µM, a GI50 [27] of 41 µM and a TGI [27] greater than 100 µM. For the same compound, the GI50 [28] was 12.5 µM, the TGI [28] was greater than 100 µM and the GI50 [29] was 2.89 µM. It also gave a TGI [29] of 25.8 µM, a GI50 [30] of 31.7 µM and a TGI [30] greater than 100 µM. The GI50 [31] was 6.01 µM, the TGI [31] was 26.6 µM and the GI50 [32] was greater than 100 µM. For the same compound, the TGI [32] was greater than 100 µM, the GI50 [33] was 3.11 µM and the TGI [33] was 15.8 µM. For the same compound, the GI50 [34] was 22.4 µM, the TGI [34] was greater than 100 µM and the GI50 [35] was 9.28 µM. For the same compound, the TGI [35] was greater than 100 µM, the GI50 [36] was 85.5 µM and the TGI [36] was greater than 100 µM. It also gave a GI50 [37] greater than 100 µM, a TGI [37] greater than 100 µM and a GI50 [38] of 6.11 µM. The TGI [38] was 23.6 µM, the GI50 [39] was 88.6 µM and the TGI [39] was greater than 100 µM. For the same compound, the GI50 [40] was 5.57 µM, the TGI [40] was 35.4 µM and the GI50 [41] was 25.2 µM. The TGI [41] was greater than 100 µM, the GI50 [42] was 5.8 µM and the TGI [42] was 71.8 µM. It also gave a GI50 [43] of 12.9 µM, a TGI [43] of 75.8 µM and a GI50 [44] of 17 µM. For the same compound, the TGI [44] was greater than 100 µM, the GI50 [45] was 11.5 µM and the TGI [45] was greater than 100 µM. It also gave a GI50 [46] of 5.65 µM, a TGI [46] of 19.4 µM and a GI50 [47] of 29.2 µM. The TGI [47] was greater than 100 µM, the GI50 [48] was 38.3 µM and the TGI [48] was greater than 100 µM. For the same compound, the GI50 [49] was 3.59 µM, the TGI [49] was 22.2 µM and the GI50 [50] was greater than 100 µM. The TGI [50] was greater than 100 µM, the GI50 [51] was 28.1 µM and the TGI [51] was greater than 100 µM. For the same compound, the GI50 [52] was 4.91 µM, the TGI [52] was greater than 100 µM and the GI50 [53] was 5.62 µM. For the same compound, the TGI [53] was 24.6 µM, the GI50 [54] was greater than 100 µM and the TGI [54] was greater than 100 µM. It also gave a GI50 [55] greater than 100 µM, a TGI [55] greater than 100 µM and a GI50 [56] of 45.2 µM. It also gave a TGI [56] greater than 100 µM.
